Data reported in PMC6470589, “Contribution of Molecular Structure to Self-Assembling and Biological Properties of Bifunctional Lipid-Like 4-(N-Alkylpyridinium)-1,4-Dihydropyridines” (Pharmaceutics, 2019).

Assays:
[1] = test system: HT-1080 (human connective tissue fibrosarcoma) cells; assay: MTT cytotoxicity assay on HT-1080 tumor cells, 72 h; format: cell-based; conditions: MTT, 72 h; ne = no effect in the tested concentration (up to 100 μg/mL)
Procedure: Tumor cell lines HT-1080 (human connective tissue fibrosarcoma) and MH-22A (mouse hepatocarcinoma) were used. All of the cells were obtained from the American Type Culture Collection ((ATCC,) Rockville, MD, USA). HT-1080 and MH-22A cells (4 × 10^4 cell/mL) were seeded in 96-well plates in Dulbecco’s modified Eagle’s medium (DMEM) containing 10% fetal bovine serum and cultivated for 72 h at 37 °C, 5% CO2 by exposure to different compounds concentrations (100 μg/mL, 25 μg/mL, 6.25 μg/mL, and 1.56 μg/mL). Cell viability was measured using 3-(4,5-dimethylthiazol-2-yl)-2,5-diphenyl-tetrazolium bromide (MTT) assay. In brief, after incubating with compounds, the culture medium was removed and fresh medium with 0.2 mg/mL MTT was added in each well of the plate. After incubation (3 h, 37 °C, 5% CO2), the medium with MTT was removed, and 200 μL of DMSO was added at once to each sample. The samples were tested at 540 nm on a Tecan multiplate reader Infinite1000 (Tecan Austria GmbH, Salzburg, Austria). The IC50 was calculated using the program Graph Pad Prism® 3.0.

[2] = test system: NIH 3T3 (Mouse Swiss Albino embryo fibroblast) cells; assay: Basal cytotoxicity test (neutral red uptake) with estimation of LD50 from IC50; format: cell-based; conditions: category by estimated LD50 (mg/kg)
Procedure: The neutral red uptake (NRU) assay was performed according to the standard protocol of Stokes modified by NICEATM-ECVAM validation study. The NRU cytotoxicity assay procedure was based on the ability of viable cells to incorporate and bind neutral red, which is a supravital dye.
NIH 3T3 (Mouse Swiss Albino embryo fibroblast) cells (9000 cells/well) were placed into 96-well plates for 24 h in DMEM medium containing 5% fetal bovine serum (FBS). Then, they were exposed to the test compound over a range of seven concentrations (1000 μg/mL, 316 μg/mL, 100 μg/mL, 31 μg/mL, 10 μg/mL, 3.0 μg/mL, and 1.0 μg/mL) for 24 h. Untreated cells were used as a control. After 24 h, the medium was removed from all plates. Then, 250 μL of neutral red (NR) solution was added (0.05 mg/mL NR in DMEM 24 h pre-incubated at 37 °C and then filtered before use through a 0.22-µm syringe filter). Plates were incubated for 3 h, and then, cells were washed three times with phosphate buffered saline (PBS). The dye within viable cells was released by extraction with a mixture of acetic acid, ethanol, and water (1:50:49). The absorbance of neutral red was measured using a spectrophotometer multiplate reader Infinite M1000 (Tecan Austria GmbH, Salzburg, Austria) at 540 nm. The optical density (OD) was calculated using the formula: OD (treated cells) × 100/OD (control cells). The IC50 values were calculated using the program Graph Pad Prism® 3.0.
Data from the in vitro tests were used for estimating the starting dose for acute oral systemic toxicity tests in rodent. The in vivo starting dose is an estimated LD50 value that is calculated by inserting the in vitro IC50 value into a regression formula: log LD50 (mM/kg) = 0.439 log IC50 (mM) + 0.621 [29]. The value is recalculated to mg/kg, and compounds are evaluated in accordance with four toxicity categories: category 1: LD50 ≤ 5 mg/kg (highly toxic); category 2: 5 < LD50 ≤ 50 mg/kg (moderately toxic); category 3: 50 < LD50 ≤ 300 mg/kg (slightly toxic); category 4: 300 < LD50 ≤ 2000 mg/kg (practically non-toxic). Using an alternative in vitro method enables comparing the possible toxicity of new compounds and selecting compounds for further study, which will vastly reduce the number of animal experiments.

[3] = test system: DPPC (1,2-dipalmitoyl-sn-glycero-3-phosphocholine) vesicles with DPH probe; assay: Phospholipid binding assay (quenching of DPH fluorescence); conditions: DPPC 2 × 10^−5 M, DPH 5 × 10^−6 M, 1,4-DHP 5 × 10^−5 M
Procedure: Binding studies of the 4-(N-alkylpyridinium)-1,4-DHP derivatives 1–11 with phospholipid were carried out in Tris-buffered saline (TBS) buffer (10 mM of Tris, 150 mM of NaCl, pH 7.4) by a fluorescence probe technique using a modified protocol described by Ma et al.. Briefly, 1,2-dipalmitoyl-sn-glycero-3-phosphocholine (DPPC) vesicles dispersed in TBS buffer were prepared by sonication of the lipid solution using a probe sonifier for 30 min. The concentration of DPPC stock solution was 6 × 10^−5 M; the concentration of the stock solutions of the 4-(N-alkylpyridinium)-1,4-DHP derivatives were 1.5 × 10^−4 M.
To characterise the hydrophobic interaction between the 1,4-DHP and phospholipids, 1,6-diphenyl-1,3,5-hexatriene (DPH) was used as a fluorescence probe. […]
Mixtures containing 40 µL of DPPC stock solution (6 × 10^−5 M) and 40 µL of DPH diluted stock solution (15 × 10^−6 M) were incubated at 50 °C for 0.5 h in the dark; then, an aliquot of 4-(N-alkylpyridinium)-1,4-DHP derivatives was added with the following incubation at 50 °C for 0.5 h in the dark, after which samples were cooled to room temperature and the fluorescence intensity was measured by a Tecan multiplate reader Infinite1000 (Tecan Austria GmbH, Salzburg, Austria). […]

[4] = test system: vascular smooth muscle A7R5 cell line; parameters: method as in doi:10.1016/j.crci.2013.07.003; conditions: read-out: Calcium antagonistic properties, IC50, A7R5; cited from earlier work
[5] = parameters: method as in PMID 26042808; conditions: cited from earlier work
[6] = test system: transgenic Alzheimer's disease female mice; parameters: method as in PMID 27345857; conditions: cited from earlier work

Compound: C#CCOC(=O)C1=C(C)NC(C)=C(C(=O)OCC#C)C1c1ccc[n+](CC)c1 [Compound 7]
- Cytotoxicity IC50, HT-1080 [1]: did not demonstrate any cytotoxic effect and ne

Compound: C#CCOC(=O)C1=C(C)NC(C)=C(C(=O)OCC#C)C1c1ccc[n+](CCCCCCCCCCCC)c1 [Compound 9]
- IC50 [1]: 2000 ± 200 nM

Compound: CCCCCCCCCCCC[n+]1cccc(C2C(C(=O)OCC)=C(C)NC(C)=C2C(=O)OCC)c1 [Compound 3]
- Toxicity category from estimated LD50 [2]: non-toxic
- Quenching of the fluorescence of the DPH-DPPC system [3]: lowest relative fluorescence intensity
- IC50 [4]: 600 to 700 nM
- Blood–brain barrier crossing [5]: crossed the blood–brain barrier
- Memory-improving anxiolytic effects [6]: memory-improving anxiolytic effects

Compound: C#CCN1C(C)=C(C(=O)OCC)C(c2ccc[n+](CCCCCCCCCCCC)c2)C(C(=O)OCC)=C1C [Compound 6]
- IC50 [4]: 600 to 700 nM
